# In paper PMC6976303 (Biochemistry, 2019):
# Biological target: T1, human ABHD14B (Homo sapiens, UniProt Q96IU4)
# T1 sequence (Q96IU4 1-210): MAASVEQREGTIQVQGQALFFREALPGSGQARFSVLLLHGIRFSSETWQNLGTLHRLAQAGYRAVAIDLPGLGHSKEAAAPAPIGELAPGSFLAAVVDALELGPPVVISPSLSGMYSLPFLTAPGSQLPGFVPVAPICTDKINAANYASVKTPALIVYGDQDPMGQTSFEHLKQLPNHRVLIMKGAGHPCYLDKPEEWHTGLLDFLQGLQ
# Assay: thermal shift assay, Sypro-Orange
# Assay type: binding
# Details: 10 mM ligand, 10 μM enzyme, 10 mM Tris pH 8
row,SMILES,leftward (lower temperature) thermal shift
1,CC(C)(COP(=O)(O)OP(=O)(O)OC[C@H]1O[C@@H](n2cnc3c(N)ncnc32)[C@H](O)[C@@H]1OP(=O)(O)O)[C@@H](O)C(=O)NCCC(=O)NCCS [CoA],~ 2 °C
2,CC(=O)SCCNC(=O)CCNC(=O)[C@H](O)C(C)(C)COP(=O)(O)OP(=O)(O)OC[C@H]1O[C@@H](n2cnc3c(N)ncnc32)[C@H](O)[C@@H]1OP(=O)(O)O [acetyl-CoA],~ 2 °C
